Measurements from US10494380B2, “Nitrogen-containing tricyclic derivatives having HIV replication inhibitory activity” (priority 2015, dated 2019).
Where two headings read alike, the source gives them in different places.

Tests used:
Format in all cases: cell-based
[1] = tested on: HIV (HTLV-IIIB strain); experiment: HIV replication inhibition assay (Test Example 1; MT-4 cells, MTT)
Method: HIV (HTLV-IIIB strain) persistent infected human T cell strain Molt-4 clone8 was cultured in RPMI-1640 medium supplemented with 10% fetal bovine serum and the supernatant was filtered, then the virus titer was measured and stored at −80° C. Each anti-human immunodeficiency virus active substance was diluted with the above culture medium to the designated concentration, which was dispensed into 96-well microtiter plate by 50 μL. Next, 100 μL of MT-4 cell suspension (2.5×10^4 cells) was dispensed into each well, then 50 μl of the above HIV-containing supernatant diluted with the above culture medium was added thereto (60 pfu (plaque forming unit)).
Cell mixture was cultured at 37° C. in CO2 incubator for four days, then 30 μL of MTT (3-(4,5-dimethylthiazole-2-yl)-2,5-diphenyltetrazolyum bromide) reagent (5 mg/mL in PBS) was added to all wells followed by incubation for 1 hour. In this step, MTT was reduced to insoluble formazan in living cells. To elute generated formazan 150 μL of the culture supernatant was removed from all wells, then 150 μL of cell lysis solution (10% Triton X-100 and 0.4% (v/v)-HCl containing isopropanol) was added thereto, followed by shaking with a plate mixer. The formazan was measured with micro plate reader at OD: 560 nm and 690 nm (reference wavelength) and the result was compared with the reference wells. EC50 and EC90 mean the compound concentration at which cytotoxicity caused by virus infection is inhibited 50% and 90%, respectively.

[2] = tested on: T125A mutant virus (HIV-1 NL-432 recombinant molecular clone, IN gene); experiment: HIV replication inhibition assay against integrase 124/125 mutant virus (Test Example 2)
Summary of the method: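 MT-4 cells (2.5×10^4 per well) infected with 60 pfu of 293T-derived HIV-1 NL-432 clone carrying integrase 124/125 point mutations, in presence of compound, cultured 4 days at 37 °C. Viability by MTT formazan at 560/690 nm; EC50 = concentration inhibiting 50% of virus-induced cytotoxicity.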

[3] = tested on: HIV; details: EC50 in the presence of human serum (25%) versus without human serum, MT-4 cells
Summary of the method: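 Compound is preincubated 1 h at room temperature with human serum, or with medium alone as the serum-free control. MT-4 cells infected with HIV (1 h, 37° C) are added and cultured 4 days. EC50 is determined with and without serum; their ratio gives the potency shift.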

[4] = Human immunodeficiency virus 1, MT4, 96 h, HIV (HTLV-IIIB strain), MT-4 cells, MTT, four days, read-out: EC50
[5] = Human immunodeficiency virus 1, MT4, 96 h, HIV (HTLV-IIIB strain), MT-4 cells, MTT, four days, read-out: EC90
[6] = Human immunodeficiency virus 1, MT4, read-out: EC50 against T125A mutant virus, T125A mutant virus (HIV-1 NL-432 IN gene), MT-4 cells, MTT
[7] = Human immunodeficiency virus 1, IIIB, MT4, 96 h

Cc1c([C@H](OC(C)(C)C)C(=O)O)c(-c2ccc(Cl)cc2)c2cc(C)n3c2c1N(c1ncc(N2CCOCC2)cn1)CC3 [Compound I-246]
EC50 [1, 4]: 2.3 nM | EC90 [1, 5]: 2.5 nM | EC50 [2, 6]: 4.5 nM | Potency shift value [3]: 23

Cc1c([C@H](OC(C)(C)C)C(=O)O)c(-c2ccc(Cl)cc2)c2cc(C)n3c2c1N(S(=O)(=O)CC[Si](C)(C)C)CC3 [Compound I-029]
EC50 [1, 7]: 8.6 nM | EC90 [1, 7]: 12 nM | EC50 [2, 6]: 89 nM | Potency shift value [3]: 28

COCCCOc1cnc(N2CCn3c(C)cc4c(-c5ccc(Cl)cc5)c([C@H](OC(C)(C)C)C(=O)O)c(C)c2c43)nc1 [Compound I-255]
EC50 [1, 4]: 1.6 nM | EC90 [1, 5]: 2.4 nM | EC50 [2, 6]: 5.1 nM | Potency shift value [3]: 22

Cc1ccc(-c2c([C@H](OC(C)(C)C)C(=O)O)c(C)c3c4c2cc(C)n4CCN3C)c(O)c1 (mixture of isomers) [Compound I-245]
EC50 [1, 4]: 27 nM | EC90 [1, 5]: 42 nM | EC50 [2, 6]: 63 nM | Potency shift value [3]: 12

Cc1ccc(-c2c([C@H](OC(C)(C)C)C(=O)O)c(C)c3c4c2cc(C)n4CCN3c2noc(C)n2)cc1 [Compound I-227]
EC50 [1, 4]: 1 nM | EC90 [1, 5]: 1.4 nM | EC50 [2, 6]: 4.1 nM | Potency shift value [3]: 15

Cc1ccc(-c2c([C@H](OC(C)(C)C)C(=O)O)c(Cl)c3c4c2cc(C)n4CCN3CCN(C)C)cc1 [Compound I-265]
EC50 [1, 4]: 13 nM | EC90 [1, 5]: 30 nM | EC50 [2, 6]: 44 nM | Potency shift value [3]: 2.5

[2H]C([2H])([2H])Oc1cnc(N2CCn3c(C)cc4c(-c5ccc(C)cc5)c([C@H](OC(C)(C)C)C(=O)O)c(C)c2c43)nc1 [Compound I-266]
EC50 [1, 4]: 1.3 nM | EC90 [1, 5]: 2.1 nM | EC50 [2, 6]: 3.7 nM | Potency shift value [3]: 23

Cc1ccc(-c2c([C@H](OC(C)(C)C)C(=O)O)c(C)c3c4c2cc(C)n4CCN3CCNC2CC2)cc1 [Compound I-028]
EC50 [1, 4]: 74 nM | EC90 [1, 5]: 93 nM | Potency shift value [3]: 2.5

Cc1ccc(-c2c([C@H](OC(C)(C)C)C(=O)O)c(C)c3c4c2ccn4CCN3C)cc1 [Compound I-004]
EC50 [1, 4]: 4.1 nM | EC90 [1, 5]: 6 nM | EC50 [2, 6]: 48 nM

CCN1CCn2c(C)cc3c(-c4ccc(C)cc4)c([C@H](OC(C)(C)C)C(=O)O)c(C)c1c32 [Compound I-009]
EC50 [1, 4]: 0.98 nM | EC90 [1, 5]: 1.6 nM | EC50 [2, 6]: 14 nM | Potency shift value [3]: 38

COc1cnc(N2CCn3c(C)cc4c(-c5c(F)cc(C)cc5F)c([C@H](OC(C)(C)C)C(=O)O)c(C)c2c43)nc1 [Compound I-230]
EC50 [1, 4]: 1.8 nM | EC90 [1, 5]: 3.3 nM | EC50 [2, 6]: 6.7 nM | Potency shift value [3]: 24

Cc1c([C@H](OC(C)(C)C)C(=O)O)c(-c2ccc(Cl)cc2)c2cc(C)n3c2c1NC(=O)C3 [Compound I-016]
EC50 [1, 4]: 8.7 nM | EC90 [1, 5]: 13 nM | EC50 [2, 6]: 42 nM | Potency shift value [3]: 8.6

CCCc1cc2c(-c3ccc(C)cc3)c([C@H](OC(C)(C)C)C(=O)O)c(C)c3c2n1CCN3C [Compound I-013]
EC50 [1, 4]: 9.7 nM | EC90 [1, 5]: 15 nM | Potency shift value [3]: 49

Cc1ccc(-c2c([C@H](OC(C)(C)C)C(=O)O)c(C)c3c4c2c(Cl)c(C)n4CCN3C)cc1 [Compound I-002]
EC50 [1, 4]: 2.2 nM | EC90 [1, 5]: 3.5 nM | EC50 [2, 6]: 21 nM

CNCC(=O)N1CCn2c(C)cc3c(-c4ccc(Cl)cc4)c([C@H](OC(C)(C)C)C(=O)O)c(C)c1c32 [Compound I-018]
EC50 [1, 4]: 83 nM | EC90 [1, 5]: 100 nM | Potency shift value [3]: 6.8

Cc1ccc(-c2c([C@H](OC(C)(C)C)C(=O)O)c(C)c3c4c2cc(COCc2ccccc2)n4CCN3C)cc1 [Compound I-005]
EC50 [1, 4]: 31 nM | EC90 [1, 5]: 46 nM | Potency shift value [3]: 7.8

Cc1ccc(-c2c([C@H](OC(C)(C)C)C(=O)O)c(C)c3c4c2cc(CO)n4CCN3C)cc1 [Compound I-022]
EC50 [1, 4]: 17 nM | EC90 [1, 5]: 25 nM | Potency shift value [3]: 4.5

Cc1ccc(-c2c([C@H](OC(C)(C)C)C(=O)O)c(C)c3c4c2cc(C)n4CC(=O)N3C)cc1 [Compound I-020]
EC50 [1, 4]: 9.5 nM | EC90 [1, 5]: 12 nM | Potency shift value [3]: 41

Cc1ccc(-c2c([C@H](OC(C)(C)C)C(=O)O)c(C)c3c4c2cc(C)n4CCN3CC2COC2)cc1 [Compound I-211]
EC50 ([2]; T125A mutant virus (HIV-1 NL-432 IN gene), MT-4 cells, MTT, read-out: EC50 against T125A mutant virus): 20 nM | Potency shift value [3]: 7.5

Cc1ccc(-c2c([C@H](OC(C)(C)C)C(=O)O)c(C)c3c4c2cc(C)n4CCN3CCN2CCC(F)(F)C2)cc1 [Compound I-162]
EC50 [2, 6]: 35 nM | Potency shift value [3]: 7.5

Cc1c([C@H](OC(C)(C)C)C(=O)O)c(-c2ccc(Cl)cc2)c2cc(C)n3c2c1N(C(N)=O)CC3 [Compound I-173]
EC50 [2, 6]: 71 nM | Potency shift value [3]: 4

Cc1c(-c2c([C@H](OC(C)(C)C)C(=O)O)c(C)c3c4c2cc(C)n4CCN3C)cc(F)c2c1CCCO2 [Compound I-159]
EC50 [2, 6]: 16 nM | Potency shift value [3]: 8.8

Cc1c([C@H](OC(C)(C)C)C(=O)O)c(-c2ccc(Cl)cc2)c2cc(C)n3c2c1N(c1ncccc1F)CC3 [Compound I-193]
EC50 [2, 6]: 2.8 nM | Potency shift value [3]: 21

Cc1ccc(-c2c([C@H](OC(C)(C)C)C(=O)O)c(C)c3c4c2cc(C)n4CCN3c2ncc(OCCCO)cn2)cc1 [Compound I-284]
EC50 [2, 6]: 3.6 nM | Potency shift value [3]: 17

Cc1ccc(-c2c([C@H](OC(C)(C)C)C(=O)O)c(C)c3c4c2cc(C)n4CCN3)cc1 [Compound I-015]
EC50 [1, 4]: 27 nM | EC90 [1, 5]: 40 nM | Potency shift value [3]: 11

Cc1c([C@H](OC(C)(C)C)C(=O)O)c(-c2ccc(Cl)cc2)c2cc(C)n3c2c1N(C(=O)Nc1ccccc1Br)CC3 [Compound I-232]
EC50 [2, 6]: 34 nM | Potency shift value [3]: 8.6

COc1cnc(N2c3c(C)c([C@H](OC(C)(C)C)C(=O)O)c(-c4ccc(C)cc4)c4cc(C)n(c34)C[C@H]2C)nc1 [Compound I-241]
EC50 [2, 6]: 2.2 nM | Potency shift value [3]: 8.4

COCc1cc2c(-c3ccc(C)cc3)c([C@H](OC(C)(C)C)C(=O)O)c(C)c3c2n1CCN3C [Compound I-011]
EC50 [1, 4]: 16 nM | EC90 [1, 5]: 24 nM | Potency shift value [3]: 21

Cc1ccc(-c2c([C@H](OC(C)(C)C)C(=O)O)c(C)c3c4c2cc(C)n4CCN3CCN2CCCC2)cc1 [Compound I-130]
EC50 [2, 6]: 27 nM | Potency shift value [3]: 2.7

COc1cnc(N2CCn3c(C)cc4c(-c5ccc(C)cc5)c([C@H](OC(C)(C)C)C(=O)O)c(C)c2c43)cn1 [Compound I-275]
EC50 [2, 6]: 13 nM | Potency shift value [3]: 18

Cc1c([C@H](OC(C)(C)C)C(=O)O)c(-c2ccc(Cl)cc2)c2cc(C)n3c2c1OCCC3 [Compound I-188]
EC50 [2, 6]: 14 nM | Potency shift value [3]: 11

Cc1c([C@H](OC(C)(C)C)C(=O)O)c(-c2ccc(Cl)cc2)c2cc(C)n3c2c1N(c1ncc(N2CCCC2)cn1)CC3 [Compound I-252]
EC50 [2, 6]: 8.5 nM | Potency shift value [3]: 23

CCOCc1cnc(N2CCn3c(C)cc4c(-c5ccc(Cl)cc5)c([C@H](OC(C)(C)C)C(=O)O)c(C)c2c43)nc1 [Compound I-314]
EC50 [2, 6]: 5.3 nM | Potency shift value [3]: 41
